According to ChEMBL document CHEMBL5696442, “Discovery of type II inhibitors of TGFβ-activated kinase 1 (TAK1) and mitogen-activated protein kinase kinase kinase kinase 2 (MAP4K2)” (J Med Chem, 2015):
Calls of active or inactive are those of the source. The rule behind the calls is not given here.

Columns and labels:
[1] = target: Tyrosine-protein kinase CSK (Homo sapiens, UniProt P41240); assay: Inhibition of CSK ACT labeling site harbouring VSDFGLTKEASSTQDTGK in human Huh-7 cells at 1 uM by KiNativ Profiling analysis relative to control; format: cell-based
[2] = target: Cyclin-dependent kinase 9 (Homo sapiens) (UniProt P50750); assay: Inhibition of CDK9 Lys2 labeling site in human Huh-7 cells at 1 uM by KiNativ Profiling analysis relative to control; format: cell-based
Chain of Cyclin-dependent kinase 9 (Homo sapiens) (P50750 whole entry): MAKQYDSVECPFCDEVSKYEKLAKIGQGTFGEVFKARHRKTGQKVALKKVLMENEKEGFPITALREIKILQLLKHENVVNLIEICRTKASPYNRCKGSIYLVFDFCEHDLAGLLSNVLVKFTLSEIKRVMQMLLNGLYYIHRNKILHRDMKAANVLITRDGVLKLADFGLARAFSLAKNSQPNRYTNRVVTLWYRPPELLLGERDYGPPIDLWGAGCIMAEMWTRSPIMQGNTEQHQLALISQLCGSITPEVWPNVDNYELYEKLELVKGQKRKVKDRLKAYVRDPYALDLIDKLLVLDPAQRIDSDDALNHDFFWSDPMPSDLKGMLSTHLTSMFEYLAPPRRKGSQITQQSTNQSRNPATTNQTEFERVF

[3] = target: T1, Serine/threonine-protein kinase ULK3 (Homo sapiens) (UniProt Q6PHR2); assay: Inhibition of ULK3 Lys2 labeling site in human Huh-7 cell lysate at 1 uM by KiNativ Profiling analysis relative to control; format: subcellular
T1 sequence (whole entry): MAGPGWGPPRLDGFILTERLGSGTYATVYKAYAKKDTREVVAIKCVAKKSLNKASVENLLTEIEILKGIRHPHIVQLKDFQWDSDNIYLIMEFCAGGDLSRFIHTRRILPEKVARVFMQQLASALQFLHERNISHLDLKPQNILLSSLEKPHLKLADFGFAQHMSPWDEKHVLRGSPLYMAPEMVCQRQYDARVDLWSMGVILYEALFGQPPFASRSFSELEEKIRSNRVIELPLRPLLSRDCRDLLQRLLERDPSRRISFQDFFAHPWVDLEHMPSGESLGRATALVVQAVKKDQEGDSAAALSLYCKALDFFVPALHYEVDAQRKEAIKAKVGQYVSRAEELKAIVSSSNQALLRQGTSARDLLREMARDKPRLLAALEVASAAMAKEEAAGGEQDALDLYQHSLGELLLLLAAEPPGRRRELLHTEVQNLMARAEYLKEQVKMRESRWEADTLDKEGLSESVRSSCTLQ

[4] = target: Serine/threonine-protein kinase Nek6 (Homo sapiens) (UniProt Q9HC98); assay: Inhibition of NEK6 (unknown origin) at 10 uM by Ambit Kinomescan binding assay
Chain of Serine/threonine-protein kinase Nek6 (Homo sapiens) (Q9HC98 whole entry): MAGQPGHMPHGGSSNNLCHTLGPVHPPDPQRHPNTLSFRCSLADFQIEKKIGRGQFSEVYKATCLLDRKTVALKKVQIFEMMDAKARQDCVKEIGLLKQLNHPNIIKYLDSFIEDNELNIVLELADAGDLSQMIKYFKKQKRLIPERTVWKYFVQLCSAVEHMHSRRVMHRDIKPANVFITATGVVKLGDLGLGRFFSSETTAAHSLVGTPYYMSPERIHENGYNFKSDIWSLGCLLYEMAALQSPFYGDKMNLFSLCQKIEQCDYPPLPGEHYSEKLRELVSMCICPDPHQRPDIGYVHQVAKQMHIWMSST

[5] = target: T2, NUAK family SNF1-like kinase 1 (Homo sapiens) (UniProt O60285); assay: Inhibition of NuaK1 K2 labeling site in human Huh-7 cells at 1 uM by KiNativ Profiling analysis relative to control; format: cell-based
T2 sequence (whole entry): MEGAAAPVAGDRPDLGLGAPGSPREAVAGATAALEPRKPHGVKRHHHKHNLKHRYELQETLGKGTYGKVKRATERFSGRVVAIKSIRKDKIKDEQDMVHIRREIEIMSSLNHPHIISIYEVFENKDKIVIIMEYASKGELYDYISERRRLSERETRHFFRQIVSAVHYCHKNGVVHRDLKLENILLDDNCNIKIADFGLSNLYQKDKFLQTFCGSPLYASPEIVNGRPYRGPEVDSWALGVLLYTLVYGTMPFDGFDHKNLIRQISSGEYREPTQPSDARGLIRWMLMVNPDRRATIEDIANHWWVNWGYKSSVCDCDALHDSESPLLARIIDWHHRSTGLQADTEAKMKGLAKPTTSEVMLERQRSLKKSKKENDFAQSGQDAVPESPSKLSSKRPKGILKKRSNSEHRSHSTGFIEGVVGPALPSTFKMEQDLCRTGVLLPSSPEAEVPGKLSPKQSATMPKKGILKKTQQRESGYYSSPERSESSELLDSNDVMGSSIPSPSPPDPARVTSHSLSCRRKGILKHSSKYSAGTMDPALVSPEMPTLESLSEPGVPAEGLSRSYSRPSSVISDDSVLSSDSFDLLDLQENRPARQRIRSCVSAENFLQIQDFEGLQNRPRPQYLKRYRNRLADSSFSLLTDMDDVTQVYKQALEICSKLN

[6] = target: Serine/threonine-protein kinase SIK1 (Homo sapiens) (UniProt P57059); assay: Inhibition of SIK1 K2 labeling site in human Huh-7 cells at 10 uM by KiNativ Profiling analysis relative to control; format: cell-based
Chain of Serine/threonine-protein kinase SIK1 (Homo sapiens) (P57059 whole entry): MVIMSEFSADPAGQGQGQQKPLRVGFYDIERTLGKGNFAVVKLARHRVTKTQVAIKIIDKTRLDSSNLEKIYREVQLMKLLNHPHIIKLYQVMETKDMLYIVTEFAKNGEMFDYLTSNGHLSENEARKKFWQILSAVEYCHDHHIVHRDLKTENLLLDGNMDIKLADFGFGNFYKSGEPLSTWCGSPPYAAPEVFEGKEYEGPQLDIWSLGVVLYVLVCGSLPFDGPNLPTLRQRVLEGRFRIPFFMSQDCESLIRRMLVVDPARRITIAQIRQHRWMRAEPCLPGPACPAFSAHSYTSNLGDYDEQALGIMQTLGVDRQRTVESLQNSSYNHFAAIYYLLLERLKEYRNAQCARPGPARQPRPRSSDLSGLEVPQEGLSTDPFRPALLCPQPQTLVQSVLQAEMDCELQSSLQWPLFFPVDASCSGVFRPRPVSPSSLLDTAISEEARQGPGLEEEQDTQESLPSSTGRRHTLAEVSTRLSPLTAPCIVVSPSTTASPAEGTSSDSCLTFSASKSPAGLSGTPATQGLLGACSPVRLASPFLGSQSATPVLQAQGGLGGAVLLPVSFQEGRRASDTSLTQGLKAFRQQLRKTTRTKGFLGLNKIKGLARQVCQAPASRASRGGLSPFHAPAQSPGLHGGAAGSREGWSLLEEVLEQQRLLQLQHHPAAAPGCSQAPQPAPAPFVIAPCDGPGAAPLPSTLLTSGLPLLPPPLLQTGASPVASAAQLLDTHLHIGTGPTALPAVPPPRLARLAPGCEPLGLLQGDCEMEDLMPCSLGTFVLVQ

[7] = target: Serine/threonine-protein kinase 17B (Homo sapiens) (UniProt O94768); assay: Inhibition of DRAK2 (unknown origin) at 10 uM by Ambit Kinomescan binding assay
Chain of Serine/threonine-protein kinase 17B (Homo sapiens) (O94768 whole entry): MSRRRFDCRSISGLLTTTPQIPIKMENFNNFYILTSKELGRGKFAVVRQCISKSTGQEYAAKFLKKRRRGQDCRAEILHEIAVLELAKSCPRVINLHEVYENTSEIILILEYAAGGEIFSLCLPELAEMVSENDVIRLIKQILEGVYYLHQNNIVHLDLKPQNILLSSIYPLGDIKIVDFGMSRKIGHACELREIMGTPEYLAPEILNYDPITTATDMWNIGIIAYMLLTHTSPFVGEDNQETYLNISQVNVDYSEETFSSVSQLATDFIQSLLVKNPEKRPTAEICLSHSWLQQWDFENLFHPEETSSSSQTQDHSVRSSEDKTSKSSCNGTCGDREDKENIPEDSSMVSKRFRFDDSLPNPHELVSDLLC

[8] = target: Serine/threonine-protein kinase 26 (Homo sapiens) (UniProt Q9P289); assay: Inhibition of MST4 Lys1 labeling site in human A-375 cells at 0.05 uM by KiNativ Profiling analysis relative to control; format: cell-based
Chain of Serine/threonine-protein kinase 26 (Homo sapiens) (Q9P289 2-416 limits assumed): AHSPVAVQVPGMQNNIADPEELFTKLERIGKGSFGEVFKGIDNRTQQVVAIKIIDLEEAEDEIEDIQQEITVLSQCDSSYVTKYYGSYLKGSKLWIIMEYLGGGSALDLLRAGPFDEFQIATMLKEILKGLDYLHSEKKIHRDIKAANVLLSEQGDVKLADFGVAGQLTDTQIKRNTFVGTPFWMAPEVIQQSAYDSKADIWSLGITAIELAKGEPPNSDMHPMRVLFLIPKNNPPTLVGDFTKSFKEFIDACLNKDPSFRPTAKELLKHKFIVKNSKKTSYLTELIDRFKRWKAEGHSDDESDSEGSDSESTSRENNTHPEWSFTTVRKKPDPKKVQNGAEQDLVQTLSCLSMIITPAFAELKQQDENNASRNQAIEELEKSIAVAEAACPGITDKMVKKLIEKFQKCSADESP

[9] = target: Ephrin type-A receptor 1 (Homo sapiens) (UniProt P21709); assay: Inhibition of EPHA1 (unknown origin) at 10 uM by Ambit Kinomescan binding assay
[10] = target: Cyclin-dependent kinase 11A (Homo sapiens) (UniProt Q9UQ88); assay: Inhibition of CDC2L2 (unknown origin) at 10 uM by Ambit Kinomescan binding assay relative to control; values are per cent of control
Chain of Cyclin-dependent kinase 11A (Homo sapiens) (Q9UQ88 whole entry): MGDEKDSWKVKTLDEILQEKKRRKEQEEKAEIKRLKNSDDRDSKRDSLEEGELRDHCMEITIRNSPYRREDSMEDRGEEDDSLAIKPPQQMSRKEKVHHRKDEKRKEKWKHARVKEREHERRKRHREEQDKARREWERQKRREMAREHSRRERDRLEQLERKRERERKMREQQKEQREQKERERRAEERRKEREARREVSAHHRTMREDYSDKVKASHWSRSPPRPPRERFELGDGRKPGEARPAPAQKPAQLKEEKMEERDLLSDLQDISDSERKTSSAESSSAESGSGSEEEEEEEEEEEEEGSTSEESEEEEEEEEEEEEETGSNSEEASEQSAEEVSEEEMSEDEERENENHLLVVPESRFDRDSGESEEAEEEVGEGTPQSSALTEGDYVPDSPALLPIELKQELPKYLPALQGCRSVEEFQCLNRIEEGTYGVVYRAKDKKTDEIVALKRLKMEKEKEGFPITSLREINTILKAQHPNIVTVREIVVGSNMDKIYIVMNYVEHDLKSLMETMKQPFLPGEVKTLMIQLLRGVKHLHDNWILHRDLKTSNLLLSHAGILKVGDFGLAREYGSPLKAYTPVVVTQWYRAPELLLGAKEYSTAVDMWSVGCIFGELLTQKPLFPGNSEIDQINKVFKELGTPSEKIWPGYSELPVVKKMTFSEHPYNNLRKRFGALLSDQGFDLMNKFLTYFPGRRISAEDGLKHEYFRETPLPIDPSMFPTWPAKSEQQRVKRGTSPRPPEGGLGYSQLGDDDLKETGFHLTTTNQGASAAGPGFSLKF

[11] = target: Mitogen-activated protein kinase kinase kinase kinase 4 (Homo sapiens, UniProt O95819); assay: Inhibition of MAP4K4 (unknown origin) at 10 uM by Ambit Kinomescan binding assay relative to control
[12] = target: Cyclin-dependent kinase 17 (Homo sapiens) (UniProt Q00537); assay: Inhibition of PCTAIRE2 K2 labeling site in human Huh-7 cells at 10 uM by KiNativ Profiling analysis relative to control; format: cell-based
Chain of Cyclin-dependent kinase 17 (Homo sapiens) (Q00537 whole entry, looked up, canonical isoform): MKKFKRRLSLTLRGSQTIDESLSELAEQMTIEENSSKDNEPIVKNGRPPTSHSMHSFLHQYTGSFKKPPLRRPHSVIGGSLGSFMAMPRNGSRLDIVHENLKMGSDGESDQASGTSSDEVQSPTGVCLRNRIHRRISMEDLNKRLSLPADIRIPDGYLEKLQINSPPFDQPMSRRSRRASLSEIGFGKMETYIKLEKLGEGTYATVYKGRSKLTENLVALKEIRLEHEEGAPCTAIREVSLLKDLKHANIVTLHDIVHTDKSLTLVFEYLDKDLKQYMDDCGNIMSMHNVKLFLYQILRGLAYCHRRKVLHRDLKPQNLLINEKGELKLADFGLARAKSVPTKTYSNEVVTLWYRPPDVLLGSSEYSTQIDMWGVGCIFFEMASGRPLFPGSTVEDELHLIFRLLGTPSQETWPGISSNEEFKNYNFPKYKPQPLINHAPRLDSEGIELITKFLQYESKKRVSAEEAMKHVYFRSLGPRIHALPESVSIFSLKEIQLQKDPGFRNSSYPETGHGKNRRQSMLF

[13] = target: Phosphatidylinositol 4,5-bisphosphate 3-kinase catalytic subunit beta isoform (Homo sapiens) (UniProt P42338); assay: Inhibition of PIK3CB ATP labeling site in human A-375 cells at 5 uM by KiNativ Profiling analysis relative to control; format: cell-based
Chain of Phosphatidylinositol 4,5-bisphosphate 3-kinase catalytic subunit beta isoform (Homo sapiens) (P42338 whole entry, looked up, canonical isoform): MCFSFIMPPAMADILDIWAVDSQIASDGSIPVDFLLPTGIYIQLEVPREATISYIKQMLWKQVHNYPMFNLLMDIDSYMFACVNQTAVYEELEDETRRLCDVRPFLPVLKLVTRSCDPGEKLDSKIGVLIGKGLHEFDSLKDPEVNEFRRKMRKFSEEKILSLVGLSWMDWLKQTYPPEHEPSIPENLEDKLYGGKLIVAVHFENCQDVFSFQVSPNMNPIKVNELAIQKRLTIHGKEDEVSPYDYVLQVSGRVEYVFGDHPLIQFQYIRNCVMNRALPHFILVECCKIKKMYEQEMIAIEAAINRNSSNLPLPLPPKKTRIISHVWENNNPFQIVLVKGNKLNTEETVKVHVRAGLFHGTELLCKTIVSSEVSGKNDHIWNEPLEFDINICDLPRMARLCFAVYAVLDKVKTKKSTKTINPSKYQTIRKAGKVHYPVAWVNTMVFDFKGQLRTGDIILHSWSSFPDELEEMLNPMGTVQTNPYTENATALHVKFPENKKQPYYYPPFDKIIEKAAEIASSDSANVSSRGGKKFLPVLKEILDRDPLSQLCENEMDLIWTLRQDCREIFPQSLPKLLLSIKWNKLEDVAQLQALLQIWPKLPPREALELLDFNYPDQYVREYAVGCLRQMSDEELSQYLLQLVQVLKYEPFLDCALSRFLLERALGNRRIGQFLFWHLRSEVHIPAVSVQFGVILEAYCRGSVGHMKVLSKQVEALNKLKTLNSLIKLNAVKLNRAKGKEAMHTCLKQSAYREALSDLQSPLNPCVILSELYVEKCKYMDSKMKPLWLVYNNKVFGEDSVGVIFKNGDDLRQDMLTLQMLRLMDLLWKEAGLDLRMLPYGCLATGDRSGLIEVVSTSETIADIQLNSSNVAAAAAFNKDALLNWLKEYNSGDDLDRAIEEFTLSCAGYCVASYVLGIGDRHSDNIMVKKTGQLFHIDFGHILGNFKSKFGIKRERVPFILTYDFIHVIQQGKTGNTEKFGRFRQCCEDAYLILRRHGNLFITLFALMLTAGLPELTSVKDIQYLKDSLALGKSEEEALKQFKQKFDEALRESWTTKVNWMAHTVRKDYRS

[14] = target: Proto-oncogene tyrosine-protein kinase ROS (Homo sapiens) (UniProt P08922); assay: Inhibition of ROS1 (unknown origin) at 1 uM by Ambit Kinomescan binding assay relative to control
[15] = target: Ribosomal protein S6 kinase alpha-6 (Homo sapiens) (UniProt Q9UK32); assay: Inhibition of C-terminal RSK4 kinase domain 2 (unknown origin) at 1 uM by Ambit Kinomescan binding assay relative to control
[16] = target: Microtubule-associated serine/threonine-protein kinase 2 (Homo sapiens) (UniProt Q6P0Q8); assay: Inhibition of MAST2 Lys2 labeling site in human A-375 cells at 0.05 uM by KiNativ Profiling analysis relative to control; format: cell-based
[17] = target: Cyclin-dependent kinase 6 (Homo sapiens) (UniProt Q00534); assay: Inhibition of CDK6 Lys2 labeling site in human A-375 cells at 0.05 uM by KiNativ Profiling analysis relative to control; format: cell-based
Chain of Cyclin-dependent kinase 6 (Homo sapiens) (Q00534 whole entry): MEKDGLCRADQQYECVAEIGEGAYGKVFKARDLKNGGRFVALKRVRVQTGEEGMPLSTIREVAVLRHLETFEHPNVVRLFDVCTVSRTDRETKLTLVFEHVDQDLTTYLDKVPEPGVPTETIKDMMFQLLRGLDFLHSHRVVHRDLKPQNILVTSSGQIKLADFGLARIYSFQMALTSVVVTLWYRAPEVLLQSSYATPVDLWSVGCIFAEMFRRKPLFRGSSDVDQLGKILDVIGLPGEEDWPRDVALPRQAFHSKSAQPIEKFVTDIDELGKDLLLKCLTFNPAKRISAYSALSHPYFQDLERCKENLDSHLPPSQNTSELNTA

[18] = target: Serine/threonine-protein kinase 33 (Homo sapiens) (UniProt Q9BYT3); assay: Inhibition of STK33 (unknown origin) at 1 uM by Ambit Kinomescan binding assay relative to control

Compound `CNc1cc(Oc2cc(C(=O)Nc3cc(N4CCN(C)CC4)cc(C(F)(F)F)c3)ccc2C)ncn1` has an inhibition [1] of 16.6%, an inhibition [2] of 22.4% and an inhibition [3] of 2.3%.
In the case of `CCN1CCN(Cc2ccc(NC(=O)c3ccc(C)c(Oc4ccnc5[nH]ccc45)c3)cc2C(F)(F)F)CC1`, the inhibition [4] is reported as “inactive”, the inhibition [5] is reported as -9.8% and the inhibition [6] is reported as 6.6%. The inhibition [7] was “inactive”, the inhibition [8] was -8.3% and the inhibition [9] was “inactive”. The percent of control [10] was 0.05%, the inhibition [11] was 0% and the inhibition [12] was 41.7%.
In the case of `CCN1CCN(Cc2ccc(NC(=O)c3ccc(C)c(/C=C/c4cnc5[nH]ccc5c4OC)c3)cc2C(F)(F)F)CC1`, the inhibition [13] is reported as 26.6%, the inhibition [14] is reported as 100% and the inhibition [15] is reported as 50%. The inhibition [16] was -1.4%, the inhibition [17] was 5.5% and the inhibition [18] was 78%.
